Measured values published in patent US12662469B2 (SIRONAX LTD, priority 2018, dated 2026).

The compounds below were run on Cell Necrosis (assay: Cell necrosis assay / cell viability assay (necrosis inhibitor activity)). Conditions: necrosis inhibitor activity; EC data for 14-191 extrapolated; read-out: EC50.
Type: cell-based

| SMILES | EC50 |
| --- | --- |
| O=C(N1CCN(c2cccnn2)CC1)N1N=CCC1c1ccccc1 (stereo not shown) [Compound 89, (5-phenyl-4,5-dihydro-1H-pyrazol-1-yl)(4-(pyridazin-3-yl)piperazin-1-yl)methanone] | 1 to 10 µM |
| N#Cc1cnc(N2CCN(C(=O)N3N=CCC3c3ccccc3)CC2)s1 (stereo not shown) [Compound 108, 2-(4-(5-phenyl-4,5-dihydro-H-pyrazole-1-carbonyl)piperazin-1-yl)thiazole-5-carbonitrile] | 0.001 to 1 µM |
| C[C@@H]1CN(c2ncc(F)cn2)CCN1C(=O)N1N=CCC1c1ccccc1 (stereo partly drawn) [Compound 114B, ((R)-4-(5-fluoropyrimidin-2-yl)-2-methylpiperazin-1-yl)(5-phenyl-4,5-dihydro-1H-pyrazol-1-yl)methanone] | 1 to 10 µM |
| O=C(N1CC(Oc2cccc(F)c2)C1)N1N=CCC1c1ccccc1 (stereo not shown) [Compound 61, (3-(3-fluorophenoxy)azetidin-1-yl)(5-phenyl-4,5-dihydro-1H-pyrazol-1-yl)methanone] | 0.001 to 1 µM |
| C#Cc1cc(OC2CN(C(=O)N3N=CCC3c3ccccc3)C2)ncn1 (stereo not shown) [Compound 125, (3-((6-ethynylpyrimidin-4-yl)oxy)azetidin-1-yl)(5-phenyl-4,5-dihydro-1H-pyrazol-1-yl)methanone] | 1 to 10 µM |
| O=C(N1CC(Oc2c(F)cc(F)cc2F)C1)N1N=CCC1c1cc(F)cc(F)c1 (stereo not shown) [Compound 126, (5-(3,5-difluorophenyl)-4,5-dihydro-1H-pyrazol-1-yl)(3-(2,4,6-trifluorophenoxy)azetidin-1-yl)methanone] | 0.001 to 1 µM |
| O=C(N1CCN(c2ncc(F)cn2)CC1)N1N=CCC1c1ccccc1 (stereo not shown) [Compound 83, (4-(5-fluoropyrimidin-2-yl)piperazin-1-yl)(5-phenyl-4,5-dihydro-1H-pyrazol-1-yl)methanone] | 0.001 to 1 µM |
| C[C@H]1CN(c2ncc(Cl)cn2)CCN1C(=O)N1N=CCC1c1ccccc1 (stereo partly drawn) [Compound 113B, ((S)-4-(5-chloropyrimidin-2-yl)-2-methylpiperazin-1-yl)(5-phenyl-4,5-dihydro-1H-pyrazol-1-yl)methanone] | 1 to 10 µM |
| C[C@H]1CN(c2ncc(F)cn2)CCN1C(=O)N1N=CC[C@H]1c1cc(F)cc(F)c1 [Compound 118A, ((S)-5-(3,5-difluorophenyl)-4,5-dihydro-1H-pyrazol-1-yl)((S)-4-(5-fluoropyrimidin-2-yl)-2-methylpiperazin-1-yl)methanone] | 0.001 to 1 µM |
| O=C(N1CC(Cc2ccc(Cl)cc2F)C1)N1N=CCC1c1ccccc1 (stereo not shown) [Compound 51, (3-(4-chlor-2-fluorobenzyl)azetidin-1-yl)(5-phenyl-4,5-dihydro-1H-pyrazol-1-yl)methanone] | 0.001 to 1 µM |
| CC(c1ccccc1)C1CN(C(=O)N2N=CCC2c2ccccc2)C1 (stereo not shown) [Compound 124, (5-phenyl-4,5-dihydro-1H-pyrazol-1-yl)(3-(1-phenylethyl)azetidin-1-yl)methanone] | 1 to 10 µM |
| CNC(=O)c1coc(OC2CN(C(=O)N3N=CCC3c3cc(F)cc(F)c3)C2)n1 (stereo not shown) [Compound 173] | 0.001 to 1 µM |
| O=C(N1CC(=Cc2ccc3cc[nH]c3c2)C1)N1N=CCC1c1cc(F)cc(F)c1 (stereo not shown) [Compound 184] | 0.001 to 1 µM |
| O=C(N1CC(=Cc2ccccc2)C1)N1N=CCC1c1ccccc1 (stereo not shown) [Compound 36, (3-benzylideneazetidin-1-yl)(5-phenyl-4,5-dihydro-1H-pyrazol-1-yl)methanone] | 0.001 to 1 µM |
| O=C(N1CC(Oc2ccc3nc[nH]c3c2)C1)N1N=CCC1c1cc(F)cc(F)c1 (stereo not shown) [Compound 178] | 0.001 to 1 µM |
| O=C(N1CC(Oc2ccc(Cl)cc2)C1)N1N=CCC1c1ccccc1 (stereo not shown) [Compound 65, (3-(4-chlorophenoxy)azetidin-1-yl)(5-phenyl-4,5-dihydro-1H-pyrazol-1-yl)methanone] | 0.001 to 1 µM |
| O=C(N1CC(=Cc2c(F)cccc2F)C1)N1N=CCC1c1cc(F)cc(F)c1 (stereo not shown) [Compound 133, (3-(2,6-difluorobenzylidene)azetidin-1-yl)(5-(3,5-difluorophenyl)-4,5-dihydro-1H-pyrazol-1-yl)methanone] | 0.001 to 1 µM |
| O=C(N1CC(Oc2ccc(F)nc2)C1)N1N=CCC1c1ccccc1 (stereo not shown) [Compound 73, (3-((6-fluoropyridin-3-yl)oxy)azetidin-1-yl)(5-phenyl-4,5-dihydro-1H-pyrazol-1-yl)methanone] | 0.001 to 1 µM |
| C[C@H]1CN(c2ncc(C#N)cn2)CCN1C(=O)N1N=CCC1c1ccccc1 (stereo partly drawn) [Compound 116B, 2-((3S)-3-methyl-4-(5-phenyl-4,5-dihydro-1H-pyrazole-1-carbonyl)piperazin-1-yl)pyrimidine-5-carbonitrile] | 1 to 10 µM |
| O=C(N1CC(Oc2ccc(F)cn2)C1)N1N=CCC1c1ccccc1 (stereo not shown) [Compound 72, (3-((5-fluoropyridin-2-yl)oxy)azetidin-1-yl)(5-phenyl-4,5-dihydro-1H-pyrazol-1-yl)methanone] | 0.001 to 1 µM |
| O=C(N1CC(Oc2ccc3ccc(=O)[nH]c3c2)C1)N1N=CCC1c1cc(F)cc(F)c1 (stereo not shown) [Compound 189] | 0.001 to 1 µM |

Same assay, conditions: necrosis inhibitor activity; compounds outside 14-191; read-out: EC50

| SMILES | EC50 |
| --- | --- |
| O=C(N1CC(=Cc2cnc3c(F)n[nH]c3c2)C1)N1N=CC[C@H]1c1cc(F)cc(F)c1 [Compound 327] | 0.001 to 1 µM |
| N#Cc1cncc([C@@H]2CC=NN2C(=O)N2CC(Oc3cc4c(cc3F)OCC(=O)N4)C2)c1 [Compound 197, (S)-5-(1(3-((7-fluoro-3-oxo-3,4-dihydro-2H-benzo[b][1,4]oxazin-6-yl)oxy)azetidine-1-carbonyl)-4,5-dihydro-1H-pyrazol-5-yl)nicotinonitrile] | 0.001 to 1 µM |
| O=C(N1CC(=Cc2cnc3cn[nH]c3c2)C1)N1N=CC[C@H]1c1cc(F)cc(F)c1 [Compound 315, (S)-(3-((1H-pyrazolo[4,3-b]pyridin-6-yl)methylene)azetidin-1-yl)(5-(3,5-difluorophenyl)-4,5-dihydro-1H-pyrazol-1-yl)methanone] | 0.001 to 1 µM |
| O=C(N1CC(Oc2cc3[nH]c(=O)ccc3cc2F)C1)N1N=CC[C@H]1c1cc(F)cc(F)c1 [Compound 253, (S)-7-((1-(5-(3,5-difluorophenyl)-4,5-dihydro-1H-pyrazole-1-carbonyl)140zetidine-3-yl)oxy)-6-fluoroquinolin-2(1H)-one] | 0.001 to 1 µM |
| N#Cc1ccc(F)c(O[C@@H]2CCN(C(=O)N3N=CC[C@H]3c3cc(F)cc(F)c3)C2)c1 [Compound 341, 3-(((R)-1-((S)-5-(3,5-difluorophenyl)-4,5-dihydro-1H-pyrazole-1-carbonyl)pyrrolidin-3-yl)oxy)-4-fluorobenzonitrile] | 0.001 to 1 µM |
| O=C(Nc1nc(N2CCN(C(=O)N3N=CC[C@H]3c3cc(F)cc(F)c3)CC2)ncc1F)C1CC1 [Compound 226, (S)—N-(2-(4-(5-(3,5-difluorophenyl)-4,5-dihydro-1H-pyrazole-1-carbonyl)piperazin-1-yl)-5-fluoropyrimidin-4-yl)cyclopropanecarboxamide] | 0.001 to 1 µM |
| O=C(N1CC(Oc2nc3ccccc3s2)C1)N1N=CCC1c1cc(F)cc(F)c1 (stereo not shown) [Compound 276, (3-(benzo[d]thiazol-2-yloxy)azetidin-1-yl)(5-(3,5-difluorophenyl)-4,5-dihydro-1H-pyrazol-1-yl)methanone] | 0.001 to 1 µM |
| O=C(N1CC(=Cc2ccn3nccc3c2)C1)N1N=CC[C@H]1c1cc(F)cc(F)c1 [Compound 288, (S)-(5-(3,5-difluorophenyl)-4,5-dihydro-1H-pyrazol-1-yl)(3-(pyrazolo[1,5-a]pyridin-5-ylmethylene)azetidin-1-yl)methanone] | 0.001 to 1 µM |
| N#Cc1nc(O[C@@H]2CCN(C(=O)N3N=CC[C@H]3c3cc(F)cc(F)c3)C2)ccc1Cl [Compound 339, 3-chloro-6-(((R)-1-((S)-5-(3,5-difluorophenyl)-4,5-dihydro-1H-pyrazole-1-carbonyl)pyrrolidin-3-yl)oxy)picolinonitrile] | 0.001 to 1 µM |
| O=C(N1CC(=Cc2ccc(F)cc2Cl)C1)N1N=CC[C@H]1c1cc(F)cc(F)c1 [Compound 312, (S)-(3-(2-chloro-4-fluorobenzylidene)azetidin-1-yl)(5-(3,5-difluorophenyl)-4,5-dihydro-1H-pyrazol-1-yl)methanone] | 0.001 to 1 µM |
| CNc1nc(N2CCN(C(=O)N3N=CC[C@H]3c3cc(F)cc(F)c3)CC2)ncc1F [Compound 303, (S)-(5-(3,5-difluorophenyl)-4,5-dihydro-1H-pyrazol-1-yl)(4-(5-fluoro-4-(methylamino)pyrimidin-2-yl)piperazin-1-yl)methanone] | 0.001 to 1 µM |
| O=C(N1CC(Oc2ccc3cn[nH]c3c2)C1)N1N=CC[C@H]1c1cc(F)cc(F)c1 [Compound 207] | 0.001 to 1 µM |
| O=C(N1CC(Oc2ncc(F)cc2F)C1)N1N=CCC1c1cc(F)cc(F)c1 (stereo not shown) [Compound 210, (5-(3,5-difluorophenyl)-4,5-dihydro-1H-pyrazol-1-yl)(3-((3,5-difluoropyridin-2-yl)oxy)azetidin-1-)methanone] | 0.001 to 1 µM |
| CC1Oc2ccc(OC3CN(C(=O)N4N=CC[C@H]4c4ccccc4)C3)cc2NC1=O (stereo partly drawn) [Compound 355, 2-methyl-6-((1-((S)-5-phenyl-4,5-dihydro-1H-pyrazole-1-carbonyl)azetidin-3-yl)oxy)-2H-benzo[b][1,4]oxazin-3(4H)-one] | 0.001 to 1 µM |
| O=C(c1nc(OC2CN(C(=O)N3N=CC[C@H]3c3cc(F)cc(F)c3)C2)sc1Cl)N1CCC1 [Compound 275] | 0.001 to 1 µM |
| O=C1COc2cc(F)c(O[C@@H]3CCN(C(=O)N4N=CC[C@H]4c4cc(F)cc(F)c4)C3)cc2N1 [Compound 196] | 0.001 to 1 µM |
| O=C(N1CC(Oc2cc3[nH]nc(F)c3cc2F)C1)N1N=CC[C@H]1c1cc(F)cc(F)c1 [Compound 376, (S)-(3-((3,5-difluoro-1H-indazol-6-yl)oxy)azetidin-1-yl)(5-(3,5-difluorophenyl)-4,5-dihydro-1H-pyrazol-1-yl)methanone] | 0.001 to 1 µM |
| N#Cc1ccc(C=C2CN(C(=O)N3N=CC[C@H]3c3cncc(F)c3)C2)c(F)n1 [Compound 324, (S)-6-fluoro-5-((1-(5-(5-fluoropyridin-3-yl)-4,5-dihydro-1H-pyrazole-1-carbonyl)azetidin-3-ylidene)methyl)picolinonitrile] | 0.001 to 1 µM |
| O=C(N1CC(Oc2cc3[nH]nc(F)c3cc2F)C1)N1N=CCC1c1ccccc1 (stereo not shown) [Compound 379, (3-((3,5-difluoro-1H-indazol-6-yl)oxy)azetidin-1-yl)(5-phenyl-4,5-dihydro-1H-pyrazol-1-yl)methanone] | 0.001 to 1 µM |
